Experiments:
[1] = test system: IgE-induced degranulation of tissue mast cells; experiment: Mouse model of passive cutaneous anaphylaxis (PCA); format: in vivo; details: for PCA response, positive controls (in words): mouse, in vivo; for % Inhibition (PCA): PO, 67% PEG/33% citrate buffer, pretreatment 15 min
Description: This model provides a direct measure of IgE-induced degranulation of tissue mast cells. In this model, IgE primed animals are exposed to an allergen challenge, and the change in permeability of dermal vasculature that results from histamine release from mast cells is measured by change in the amount of dye leakage into surrounding tissue. Inhibition of mediator release by compounds that modulate mast cell degranulation is easily measured by extracting the dye from the tissue.
In the PCA assay mice are passively sensitized by intradermal injection with anti-dinitrophenol (DNP) IgE antibodies (Day −1). At predetermined times animals are treated with the test agent (Day 0). The modulatory effect of the agent on cutaneous mast cell degranulation is measured following intravenous injection of DNP conjugated to human serum albumin (HSA-DNP), together with Evans blue dye. The resulting cross-linking of the IgE receptor and subsequent mast cell degranulation-induced increase in vascular permeability is determined by measuring the amount of dye extravasation into the tissue. Dye is extracted from the tissue by formamide, and the absorbance of this extract is read at 620 nm.

[2] = test system: cultured human mast cells (CHMC); experiment: CHMC low cell density IgE activation: tryptase assay; format: cell-based; details: anti-IgE
In short: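 Cultured human mast cells (1000-1500 cells/well, donor-dependent) equilibrated 1 hr at 37° C, then stimulated with anti-IgE for 30 min at 37° C. Tryptase released into the supernatant is measured with a fluorogenic tryptase substrate after 30 min at room temperature.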

[3] = test system: cultured human mast cells (CHMC); experiment: CHMC low cell density ionomycin activation: tryptase assay; format: cell-based
[4] = test system: bone marrow derived mast cells (BMMC); experiment: BMMC high cell density IgE activation: hexosaminidase; format: cell-based, mouse; details: anti-IgE, second part of TABLE 1, read-out: BMMC anti-IgE hexos. IC50
Description: (§1) After sensitizing, cells are counted, pelleted (1000 rpm, 5-10 minutes), and resuspended at 1-3×10^6 cells/ml in MT buffer. Add 100 ul of cell suspension to each well and 100 ul of compound dilutions. The final vehicle concentration is 0.5% DMSO. Incubate at 37° C. (5% CO2) for 1 hour. After 1 hour of compound treatment, stimulate cells with 6× stimulus (60 ng/ml DNP-BSA). Mix wells with the cells and allow plates to incubate at 37° C. (5% CO2) for one hour. After 1 hour incubation, pellet cells (10 minutes, 1000 RPM) and collect 200 ul per well of the supernatant, being careful not to disturb pellet, and transfer to a clean tube or 96-well plate. Place the supernatant plate on ice. During the 4-5 hour step (see next) perform the hexosiminidase assay. Resuspend cell pellet in 240 ul WEI-conditioned media containing 0.5% DMSO and corresponding concentration of compound. Incubate BMMC cells for 4-5 hours at 37° C. (5% CO2). After incubation, pellet cells (1000 RPM, 10 minutes) and collect 225 ul per well and place in −80° C. until ready to perform ELISAS. ELISAS are performed on appropriately diluted samples (determined empirically for each donor cell population so that the sample measurement falls within the standard curve) following the supplier's instructions.
Hexosaminidase assay: In a solid black 96-well assay plate, add 50 uL hexosaminidase substrate (4-methylumbelliferyl-N-acetyl-(3-D-glucosaminide; 2 mM) to each well. Add 50 uL of BMMC cell supernatant (see above) to the hexoseaminidase substrate, place at 37° C. for 30 minutes and read the plate at 5, 10, 15, and 30 minutes on a spectrophotometer.

[5] = test system: bone marrow derived mast cells (BMMC); experiment: BMMC high cell density IgE activation: histamine; format: cell-based, mouse; details: anti-IgE, second part of TABLE 1
Description: (§2) Inhibition of degranulation was measured at both low and high cell density by quantifying the release of the granule specific factors tryptase, histamine and hexosaminidase. Inhibition of release and/or synthesis of lipid mediators was assessed by measuring the release of leukotriene LTC4 and inhibition of release and/or synthesis of cytokines was monitored by quantifying TNF-α, IL-6 and IL-13. Tryptase and hexosaminidase were quantified using fluorogenic substrates as described in their respective examples. […] The protocols of the various assays are provided below.
as §1

[6] = test system: bone marrow derived mast cells (BMMC); experiment: BMMC high cell density IgE activation: LTC4; format: cell-based, mouse; details: anti-IgE, second part of TABLE 1
Description: as §2, §1

[7] = test system: bone marrow derived mast cells (BMMC); experiment: BMMC high cell density IgE activation: IL-6; format: cell-based, mouse; details: anti-IgE, second part of TABLE 1
Description: as §2, §1

[8] = test system: bone marrow derived mast cells (BMMC); experiment: BMMC high cell density IgE activation: TNFalpha; format: cell-based, mouse; details: anti-IgE, second part of TABLE 1, read-out: BMMC anti-IgE TNF-alpha IC50
Description: as §2, §1

Compound | IC50 [2] [nM] | IC50 [3] [µM] | also measured
CN1CCC(=C2c3ccccc3C=Cc3ccccc32)CC1 [cyproheptadine, reference compound] |  |  | inhibition of the PCA response ([1]; 8 mg/kg, i.p., 30 minutes pretreatment time, n=23 experiments): 61%; PCA response, positive controls (in words) [1]: inhibit the PCA response
CN(C)CCOC(c1ccccc1)c1ccccc1 [diphenhydramine, reference compound] |  |  | PCA response, positive controls (in words) [1]: inhibit the PCA response
Fc1cnc(Nc2ccc3c(c2)OCCO3)nc1Nc1ccc2c(c1)OCCO2 [R926109, N2,N4-Bis(3,4-ethylenedioxyphenyl)-5-fluoro-2,4-pyrimidinediamine] |  |  | % Inhibition (PCA) ([1]; 50 mg/kg): 22%; % Inhibition (PCA) ([1]; 100 mg/kg): 32%; % Inhibition (PCA) ([1]; 200 mg/kg): 48%; FcεR-mediated vascular leakage with increasing doses (in words) ([1]; solution (67% PEG/33% citrate buffer) or aqueous suspension (1.5% Avicel)): dose-dependent inhibition
CCOC(=O)COc1ccc(Nc2ncc(F)c(Nc3ccc4c(c3)OCCO4)n2)cc1 [R925747, N2-(4-Ethoxycarbonylmethyleneoxyphenyl)-N4-(3,4-ethylenedioxyphenyl)-5-fluoro-2,4-pyrimidinediamine] | 1020 | 3.1 | IC50 [4]: 3100 nM
CC(C)c1cccc(Nc2nc(Nc3cccc(OCC(=O)NCC(O)CO)c3)ncc2F)c1 (centres unmarked) [R940290, N2-[3-(N-2,3-Dihydroxypropylamino)carbonylmethyleneoxyphenyl]-5-fluoro-N4-(3-isopropylphenyl)-2,4-pyrimidinediamine] |  | > 10 | IC50 [5]: 545 nM; IC50 [6]: 590 nM; IC50 [7]: 100 nM
Oc1cccc(Nc2nc(Nc3ccc4cn[nH]c4c3)ncc2F)c1 [R935191, 5-Fluoro-N4-(3-hydroxyphenyl)-N2-(indazolin-6-yl)-2,4-pyrimidinediamine] |  | > 10 | IC50 [4]: 68 nM; IC50 [6]: 213 nM; IC50 [8]: 71 nM
Cn1ncc2cc(Nc3ncc(F)c(Nc4cccc(O)c4)n3)ccc21 [R935194, 5-Fluoro-N4-(3-hydroxyphenyl)-N2-(1-methy-indazoline-5-yl)-2,4-pyrimidinediamine] |  | > 10 | IC50 [5]: 54 nM; IC50 [6]: 493 nM; IC50 [7]: 34 nM
O=C1Nc2cc(Nc3nc(Nc4cccc(O)c4)ncc3F)ccc2OC1(F)F [R940349, N4-[(2,2-Difluoro-4H-benzo[1,4]oxazin-3-one)-6-yl]-5-fluoro-N2-(3-hydroxyphenyl)-2,4-pyrimidinediamine] | 44 | 7.4 | 
CNC(=O)COc1cccc(Nc2ncc(F)c(Nc3ccc4c(c3)NC(=O)C(C)(C)O4)n2)c1 [R940323, N4-[(2,2-Dimethyl-4H-benzo[1,4]oxazin-3-one)-6-yl]-5-fluoro-N2-[3-(methylaminocarbonylmethyleneoxy)phenyl]-2,4-pyrimidinediamine] | 48 | > 10 | 
5-Cyano-N2-(3-hydroxyphenyl)-N4-(methoxycarbonylbenzyl)-2,4-pyrimidinediamine [R925821] | > 10000 | > 10 | 
Fc1cnc(Nc2ccc3cn[nH]c3c2)nc1Nc1ccc2c(c1)OC(F)(F)O2 [R935374, N4-(3,4-Difluoromethylendioxyphenyl)-5-fluoro-N2-(indazoline-6-yl)-2,4-pyrimidinediamine] | 356 | > 10 | 
COC(=O)COc1cccc(Nc2ncc(F)c(Nc3cccc(O)c3)n2)c1 [R945118, 5-Fluoro-N4-(3-hydroxyphenyl)-N2-(3-methoxycarbonylmethyleneoxyphenyl)-2,4-pyrimidinediamine] | 668 | > 10 | 
Cc1ccc(Nc2nc(Cl)ncc2F)cc1C(F)(F)F [Compound R926920] | > 10000 | > 10 | 
Fc1cnc(Nc2cccc(NCCOCc3ccccc3)c2)nc1Nc1cccc(NCCOCc2ccccc2)c1 [R950174, N2,N4-Bis[3-(N-benzyloxyethyleneamino)phenyl]-5-fluoro-2,4-pyrimidinediamine] | 4620 | > 10 | 
Cn1cc2cc(Nc3ncc(F)c(Nc4cccc(O)c4)n3)ccc2n1 [R935299, 5-Fluoro-N4-(3-hydroxyphenyl)-N2-(2-methy-indazoline-5-yl)-2,4-pyrimidinediamine] | 210 | > 10 | 
NC(=O)COc1ccc(Nc2ncc(F)c(Nc3cccc(O)c3)n2)cc1 [R945064, N2-[4-(Aminocarbonylmethyleneoxy)phenyl]-5-fluoro-N4-(3-hydroxyphenyl)-2,4-pyrimidinediamine] | 530 | > 10 | 
O=C1CN=C2COc3ccc(Nc4nc(Nc5cccc(O)c5)ncc4F)cc3N12 [R945236, N4-[2,4-Dihydro-1-oxo-4H-imidazo[2,1-c][1,4]benzoxazin-8-yl]-5-fluoro-N2-(3-hydroxyphenyl)-2,4-pyrimidinediamine] | 562 | > 10 | 
CNC(=O)COc1cccc(Nc2ncc(F)c(Nc3ccc4c(c3)C(NC(C)=O)CCO4)n2)c1 (centres unmarked) [R950393, N4-(4-Acetylamino-3,4-dihydro-2H-1-benzopyran-6-yl)-5-fluoro-N2-[3-(N-methylamino)carbonylmethyleneoxyphenyl]-2,4-pyrimidinediamine] | 404 | > 10 | 
O=C(O)COc1ccc(Nc2ncc(F)c(Nc3cccc(O)c3)n2)cc1 [R926564, N2-(4-Carboxymethyleneoxyphenyl)-5-Fluoro-N4-(3-hydroxyphenyl)-2,4-pyrimidinediamine] | 3750 | > 10 | 
CCOc1ccc(Nc2nc(Nc3cccc(OCC(=O)NC)c3)ncc2F)cc1 [R926827, N4-(4-Ethoxyphenyl)-5-fluoro-N2-[3-(N-methylamino)carbonylmethyleneoxyphenyl]-2,4-pyrimidinediamine] | 1100 | > 10 | 
Oc1cccc(Nc2nc(Nc3ccc(OCC4=NCCCN4)cc3)ncc2F)c1 [R945169, 5-Fluoro-N4-(3-hydroxyphenyl)-N2-[4-(1,4,5,6-tetrahydro-2-pyrimidyl)methyleneoxyphenyl]-2,4-pyrimidinediamine] | 10000 | > 10 | 
COc1ccc(Nc2ncc(F)c(Nc3ccc(OC)c(-c4ccccc4)c3)n2)cc1-c1ccccc1 [R926399, N2,N4-Bis[(4-methoxy-3-phenyl)phenyl]-5-fluoro-2,4-pyrimidinediamine] | > 10000 | > 10 | 
CNC(=O)COc1cccc(Nc2ncc(F)c(Nc3ccc(F)c(C(F)(F)F)c3)n2)c1 [R926838, 5-Fluoro-N4-(4-fluoro-3-trifluoromethylphenyl)-N2-[3-(N-methylamino)carbonylmethyleneoxyphenyl]-2,4-pyrimidinediamine] | 583 | > 10 | 
CNC(=O)CCn1ncc2ccc(Nc3ncc(F)c(Nc4ccc5oc(C(=O)NC)cc5c4)n3)cc21 [R935297, 5-Fluoro-N4-[2-(N-methylaminocarbonyl)benzofuran-5-yl]-N2-[1-[2(N-methylaminocarbonyl)ethyl]-indazoline-6-yl]-2,4-pyrimidinediamine] | 7330 | > 10 | 

Reference: US9499493B2, “2,4-pyrimidinediamine compounds and their uses” (Rigel Pharmaceuticals, Inc., priority 2002, dated 2016)
